Data from ChEMBL document CHEMBL3991601, “The target landscape of clinical kinase drugs” (Science, 2017).
The source made the active and inactive calls. Rule as the data show it, for most assays here: actives have a measured Kd and inactives only a lower limit.

Columns and labels:
[1] = biological target: Tyrosine-protein kinase ABL1 (Homo sapiens, UniProt P00519)
[2] = biological target: Serine/threonine-protein kinase MRCK alpha (Homo sapiens, UniProt Q5VT25)
[3] = biological target: T1, Glycine--tRNA ligase (Homo sapiens, UniProt P41250)
T1 sequence (P41250 whole entry): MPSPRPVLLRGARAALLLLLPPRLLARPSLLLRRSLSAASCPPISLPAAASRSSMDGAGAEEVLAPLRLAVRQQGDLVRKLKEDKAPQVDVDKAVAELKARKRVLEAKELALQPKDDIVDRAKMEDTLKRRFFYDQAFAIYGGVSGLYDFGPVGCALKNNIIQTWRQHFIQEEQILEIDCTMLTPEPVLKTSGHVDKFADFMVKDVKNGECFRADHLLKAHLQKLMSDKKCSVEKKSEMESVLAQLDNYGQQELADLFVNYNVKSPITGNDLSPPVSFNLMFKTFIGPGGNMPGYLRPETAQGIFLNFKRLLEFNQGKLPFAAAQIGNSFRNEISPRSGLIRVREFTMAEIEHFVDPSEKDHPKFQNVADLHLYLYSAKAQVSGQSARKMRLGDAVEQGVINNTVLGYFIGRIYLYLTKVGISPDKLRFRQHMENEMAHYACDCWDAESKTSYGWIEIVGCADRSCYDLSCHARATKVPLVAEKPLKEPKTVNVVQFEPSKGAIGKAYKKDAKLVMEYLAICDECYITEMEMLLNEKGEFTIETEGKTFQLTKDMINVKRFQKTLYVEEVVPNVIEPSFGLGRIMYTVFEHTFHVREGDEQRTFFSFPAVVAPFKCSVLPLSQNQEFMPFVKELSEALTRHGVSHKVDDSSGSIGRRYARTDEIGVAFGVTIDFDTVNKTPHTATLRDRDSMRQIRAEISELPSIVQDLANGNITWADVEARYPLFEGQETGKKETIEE

[4] = biological target: T2, Mitogen-activated protein kinase 15 (Homo sapiens, UniProt Q8TD08)
T2 sequence (Q8TD08 whole entry): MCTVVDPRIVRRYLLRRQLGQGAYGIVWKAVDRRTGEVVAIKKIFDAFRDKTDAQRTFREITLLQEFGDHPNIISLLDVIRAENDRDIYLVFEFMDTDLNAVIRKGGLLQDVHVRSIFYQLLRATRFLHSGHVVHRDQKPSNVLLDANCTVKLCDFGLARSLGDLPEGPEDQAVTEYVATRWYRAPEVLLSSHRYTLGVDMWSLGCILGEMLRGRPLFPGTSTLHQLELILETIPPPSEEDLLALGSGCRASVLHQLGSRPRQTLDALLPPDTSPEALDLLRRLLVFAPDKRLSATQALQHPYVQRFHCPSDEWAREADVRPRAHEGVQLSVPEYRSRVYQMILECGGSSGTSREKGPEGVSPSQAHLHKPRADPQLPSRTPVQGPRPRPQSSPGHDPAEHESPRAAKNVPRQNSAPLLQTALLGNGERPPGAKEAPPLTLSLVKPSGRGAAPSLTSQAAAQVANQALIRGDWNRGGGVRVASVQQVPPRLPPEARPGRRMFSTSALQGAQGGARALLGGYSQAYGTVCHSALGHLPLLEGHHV

[5] = biological target: Mitogen-activated protein kinase 9 (Homo sapiens, UniProt P45984)
Mitogen-activated protein kinase 9, sequence (P45984 whole entry): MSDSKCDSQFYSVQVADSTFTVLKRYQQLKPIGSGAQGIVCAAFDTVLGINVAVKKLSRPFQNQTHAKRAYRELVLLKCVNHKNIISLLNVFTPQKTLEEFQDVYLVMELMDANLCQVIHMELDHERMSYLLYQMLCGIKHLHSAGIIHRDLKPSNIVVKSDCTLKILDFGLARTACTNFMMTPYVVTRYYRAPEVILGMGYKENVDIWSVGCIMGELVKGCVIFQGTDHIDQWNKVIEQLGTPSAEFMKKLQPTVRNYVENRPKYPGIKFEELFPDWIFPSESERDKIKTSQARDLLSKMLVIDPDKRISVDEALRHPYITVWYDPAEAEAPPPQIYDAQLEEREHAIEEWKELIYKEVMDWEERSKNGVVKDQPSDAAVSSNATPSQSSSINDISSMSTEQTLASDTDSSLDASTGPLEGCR

[6] = biological target: Macrophage-stimulating protein receptor (Homo sapiens, UniProt Q04912)
Macrophage-stimulating protein receptor, sequence (Q04912 25-304 limits assumed): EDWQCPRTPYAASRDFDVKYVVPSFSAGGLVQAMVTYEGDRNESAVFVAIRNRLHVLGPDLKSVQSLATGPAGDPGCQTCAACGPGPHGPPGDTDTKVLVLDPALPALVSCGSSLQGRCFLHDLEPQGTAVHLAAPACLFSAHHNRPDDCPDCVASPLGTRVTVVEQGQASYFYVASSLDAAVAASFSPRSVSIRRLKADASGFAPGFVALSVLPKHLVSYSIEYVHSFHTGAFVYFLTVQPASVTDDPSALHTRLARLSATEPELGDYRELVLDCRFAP
Macrophage-stimulating protein receptor, sequence (Q04912 310-1400 limits assumed): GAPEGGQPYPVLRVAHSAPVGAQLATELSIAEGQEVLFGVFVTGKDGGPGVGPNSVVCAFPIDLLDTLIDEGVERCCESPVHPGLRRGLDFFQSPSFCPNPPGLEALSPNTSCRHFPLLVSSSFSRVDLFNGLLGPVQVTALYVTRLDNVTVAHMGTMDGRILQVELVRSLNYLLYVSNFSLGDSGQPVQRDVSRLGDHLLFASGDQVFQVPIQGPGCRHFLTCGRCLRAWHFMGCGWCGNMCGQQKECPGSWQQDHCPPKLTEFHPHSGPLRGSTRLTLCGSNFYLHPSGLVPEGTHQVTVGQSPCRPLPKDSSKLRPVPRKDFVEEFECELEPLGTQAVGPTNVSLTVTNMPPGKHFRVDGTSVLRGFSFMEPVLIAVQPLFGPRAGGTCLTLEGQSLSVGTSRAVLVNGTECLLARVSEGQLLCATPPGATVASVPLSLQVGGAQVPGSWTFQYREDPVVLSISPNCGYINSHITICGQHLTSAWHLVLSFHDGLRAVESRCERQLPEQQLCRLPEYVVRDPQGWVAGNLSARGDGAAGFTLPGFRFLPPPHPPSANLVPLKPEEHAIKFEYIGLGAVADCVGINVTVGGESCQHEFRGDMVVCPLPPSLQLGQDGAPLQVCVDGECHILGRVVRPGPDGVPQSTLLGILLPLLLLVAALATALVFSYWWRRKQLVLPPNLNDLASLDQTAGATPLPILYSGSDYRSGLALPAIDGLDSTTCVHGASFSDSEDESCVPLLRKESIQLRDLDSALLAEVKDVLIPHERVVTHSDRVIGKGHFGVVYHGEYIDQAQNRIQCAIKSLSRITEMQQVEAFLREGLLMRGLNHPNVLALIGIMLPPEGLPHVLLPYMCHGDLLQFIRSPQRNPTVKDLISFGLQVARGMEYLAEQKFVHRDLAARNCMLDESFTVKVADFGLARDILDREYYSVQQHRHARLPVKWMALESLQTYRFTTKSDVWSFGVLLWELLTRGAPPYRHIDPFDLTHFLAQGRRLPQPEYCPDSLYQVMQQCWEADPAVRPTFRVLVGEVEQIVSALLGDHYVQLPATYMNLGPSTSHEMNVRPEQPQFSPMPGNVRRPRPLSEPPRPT

[7] = biological target: T3, Membrane-associated tyrosine- and threonine-specific cdc2-inhibitory kinase (Homo sapiens, UniProt Q99640)
T3 sequence (Q99640 whole entry): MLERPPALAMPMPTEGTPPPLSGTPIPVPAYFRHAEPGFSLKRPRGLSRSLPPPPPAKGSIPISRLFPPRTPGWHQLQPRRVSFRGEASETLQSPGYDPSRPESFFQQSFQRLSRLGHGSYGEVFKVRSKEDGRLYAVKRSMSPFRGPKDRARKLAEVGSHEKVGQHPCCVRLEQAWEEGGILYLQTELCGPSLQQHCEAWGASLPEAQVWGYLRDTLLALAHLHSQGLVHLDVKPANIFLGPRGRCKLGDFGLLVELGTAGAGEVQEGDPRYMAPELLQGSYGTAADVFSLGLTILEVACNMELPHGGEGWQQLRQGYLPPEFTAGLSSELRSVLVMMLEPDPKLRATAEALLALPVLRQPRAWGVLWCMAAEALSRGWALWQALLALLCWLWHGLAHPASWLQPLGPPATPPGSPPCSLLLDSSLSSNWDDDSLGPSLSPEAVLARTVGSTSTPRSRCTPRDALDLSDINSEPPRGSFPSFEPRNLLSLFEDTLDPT

[8] = biological target: T4, EKC/KEOPS complex subunit TP53RK (Homo sapiens, UniProt Q96S44)
T4 sequence (Q96S44 whole entry): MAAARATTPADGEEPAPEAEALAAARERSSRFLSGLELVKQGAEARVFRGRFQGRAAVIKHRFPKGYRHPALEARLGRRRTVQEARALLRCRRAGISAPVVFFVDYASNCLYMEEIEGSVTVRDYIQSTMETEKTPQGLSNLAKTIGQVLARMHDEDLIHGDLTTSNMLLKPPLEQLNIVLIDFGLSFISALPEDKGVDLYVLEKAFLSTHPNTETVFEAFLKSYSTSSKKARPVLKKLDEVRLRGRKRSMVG

[9] = biological target: T5, Scaffold protein ILK (Homo sapiens, UniProt Q13418)
T5 sequence (Q13418 whole entry): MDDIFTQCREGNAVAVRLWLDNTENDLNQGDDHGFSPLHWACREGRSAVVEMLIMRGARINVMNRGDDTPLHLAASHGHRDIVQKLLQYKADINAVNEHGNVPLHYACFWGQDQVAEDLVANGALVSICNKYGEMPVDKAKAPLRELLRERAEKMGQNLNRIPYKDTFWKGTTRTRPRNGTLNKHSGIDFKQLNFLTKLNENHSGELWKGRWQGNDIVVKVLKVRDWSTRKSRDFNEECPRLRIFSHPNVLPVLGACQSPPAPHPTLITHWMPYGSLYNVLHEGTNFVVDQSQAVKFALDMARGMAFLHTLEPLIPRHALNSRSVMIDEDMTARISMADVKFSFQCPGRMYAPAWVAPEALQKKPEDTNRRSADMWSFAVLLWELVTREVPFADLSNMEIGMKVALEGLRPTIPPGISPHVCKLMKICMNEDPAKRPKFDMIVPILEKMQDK
Also: in the data inactive means no Kd found up to 30 µM.

Serine/threonine-protein kinase MRCK alpha, sequence (Q5VT25 whole entry): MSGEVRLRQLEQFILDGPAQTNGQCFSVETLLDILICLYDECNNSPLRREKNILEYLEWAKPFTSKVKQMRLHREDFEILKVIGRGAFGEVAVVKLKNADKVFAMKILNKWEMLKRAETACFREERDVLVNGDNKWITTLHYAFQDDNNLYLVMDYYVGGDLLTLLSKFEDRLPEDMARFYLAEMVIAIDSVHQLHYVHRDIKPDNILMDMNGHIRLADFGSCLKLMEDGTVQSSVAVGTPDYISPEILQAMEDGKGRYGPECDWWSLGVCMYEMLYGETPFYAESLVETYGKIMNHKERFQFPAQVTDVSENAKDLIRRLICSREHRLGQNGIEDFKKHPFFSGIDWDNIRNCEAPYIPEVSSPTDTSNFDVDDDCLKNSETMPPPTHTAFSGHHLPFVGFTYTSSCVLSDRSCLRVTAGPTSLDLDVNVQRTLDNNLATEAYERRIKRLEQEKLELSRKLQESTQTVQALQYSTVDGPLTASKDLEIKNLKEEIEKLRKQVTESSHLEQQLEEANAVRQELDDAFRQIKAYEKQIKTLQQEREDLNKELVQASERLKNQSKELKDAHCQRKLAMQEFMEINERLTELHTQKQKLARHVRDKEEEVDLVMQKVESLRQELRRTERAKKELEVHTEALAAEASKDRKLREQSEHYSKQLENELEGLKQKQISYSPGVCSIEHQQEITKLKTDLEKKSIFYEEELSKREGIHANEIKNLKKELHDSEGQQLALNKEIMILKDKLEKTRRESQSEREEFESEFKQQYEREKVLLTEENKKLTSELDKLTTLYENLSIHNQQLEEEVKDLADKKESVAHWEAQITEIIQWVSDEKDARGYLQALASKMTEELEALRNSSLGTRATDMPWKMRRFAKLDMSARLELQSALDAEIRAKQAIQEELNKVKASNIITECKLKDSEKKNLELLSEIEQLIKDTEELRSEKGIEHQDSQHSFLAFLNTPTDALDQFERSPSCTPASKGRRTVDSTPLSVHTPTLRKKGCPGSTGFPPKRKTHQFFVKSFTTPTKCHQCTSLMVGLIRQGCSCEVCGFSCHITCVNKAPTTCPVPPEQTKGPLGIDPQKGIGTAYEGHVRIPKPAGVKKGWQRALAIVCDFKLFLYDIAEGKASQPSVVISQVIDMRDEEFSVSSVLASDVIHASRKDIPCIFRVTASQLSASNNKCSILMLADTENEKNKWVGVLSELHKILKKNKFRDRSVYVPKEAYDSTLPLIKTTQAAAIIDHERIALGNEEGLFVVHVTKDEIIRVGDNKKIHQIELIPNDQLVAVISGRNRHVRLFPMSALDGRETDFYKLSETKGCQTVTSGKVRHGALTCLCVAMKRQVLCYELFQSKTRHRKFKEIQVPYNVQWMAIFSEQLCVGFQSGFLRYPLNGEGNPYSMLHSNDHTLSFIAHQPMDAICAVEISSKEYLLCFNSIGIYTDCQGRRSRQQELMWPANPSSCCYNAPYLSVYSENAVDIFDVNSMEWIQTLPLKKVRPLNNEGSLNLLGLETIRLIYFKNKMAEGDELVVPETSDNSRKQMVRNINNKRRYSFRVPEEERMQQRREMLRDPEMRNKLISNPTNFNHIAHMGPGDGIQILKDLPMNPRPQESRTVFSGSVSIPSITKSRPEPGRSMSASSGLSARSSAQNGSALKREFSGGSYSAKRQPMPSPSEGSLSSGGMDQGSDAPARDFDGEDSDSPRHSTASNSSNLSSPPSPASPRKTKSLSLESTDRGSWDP
Tyrosine-protein kinase ABL1, sequence (P00519 whole entry): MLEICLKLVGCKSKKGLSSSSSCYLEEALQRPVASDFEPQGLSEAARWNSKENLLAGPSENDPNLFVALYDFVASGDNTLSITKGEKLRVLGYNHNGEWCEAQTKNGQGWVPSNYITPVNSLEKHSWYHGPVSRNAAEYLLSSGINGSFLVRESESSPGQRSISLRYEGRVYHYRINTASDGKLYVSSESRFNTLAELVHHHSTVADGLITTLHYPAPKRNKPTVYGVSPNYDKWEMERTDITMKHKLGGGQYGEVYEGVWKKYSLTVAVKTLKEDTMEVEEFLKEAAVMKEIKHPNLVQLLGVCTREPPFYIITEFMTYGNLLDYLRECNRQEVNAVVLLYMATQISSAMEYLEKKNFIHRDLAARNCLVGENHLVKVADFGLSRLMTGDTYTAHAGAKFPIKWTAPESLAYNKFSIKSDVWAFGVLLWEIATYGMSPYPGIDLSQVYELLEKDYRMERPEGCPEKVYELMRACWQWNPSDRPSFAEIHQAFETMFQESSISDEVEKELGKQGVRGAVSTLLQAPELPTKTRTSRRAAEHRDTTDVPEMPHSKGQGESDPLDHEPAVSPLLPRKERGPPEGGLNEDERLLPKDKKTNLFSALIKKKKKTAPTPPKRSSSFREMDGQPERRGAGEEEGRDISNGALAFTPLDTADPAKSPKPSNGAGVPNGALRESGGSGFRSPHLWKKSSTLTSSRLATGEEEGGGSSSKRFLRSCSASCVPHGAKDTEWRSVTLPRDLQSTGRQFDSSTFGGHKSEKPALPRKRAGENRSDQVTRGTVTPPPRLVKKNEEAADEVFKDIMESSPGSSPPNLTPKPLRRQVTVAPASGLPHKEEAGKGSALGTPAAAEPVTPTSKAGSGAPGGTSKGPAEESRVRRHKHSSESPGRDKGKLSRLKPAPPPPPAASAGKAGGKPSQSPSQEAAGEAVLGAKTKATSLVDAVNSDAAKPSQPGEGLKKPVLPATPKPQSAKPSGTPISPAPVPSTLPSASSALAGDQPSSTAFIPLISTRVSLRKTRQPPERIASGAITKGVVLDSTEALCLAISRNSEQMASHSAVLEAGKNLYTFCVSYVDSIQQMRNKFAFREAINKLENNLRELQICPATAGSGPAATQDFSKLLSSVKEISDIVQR

Row | Kd [1] | Kd [2] | Kd [3] | Kd [5] | Kd [6] | Kd [7] | Kd [8] | Kd [9] | Structure (SMILES) | Kd [4]
1 | > 30 µM (inactive) | > 30 µM (inactive) | > 30 µM (inactive) | > 30 µM (inactive) | > 30 µM (inactive) | > 30 µM (inactive) | > 30 µM (inactive) | – | Cc1ccc(S(=O)(=O)Nc2nc3ccccc3nc2Nc2ccc3nsnc3c2)cc1 | > 30 µM (inactive)
2 | – | – | > 30 µM (inactive) | – | 0.575 µM (active) | > 30 µM (inactive) | > 30 µM (inactive) | > 30 µM (inactive) | Cc1nc(N)sc1-c1ccnc(Nc2ccc(N3CCOCC3)cc2)n1 [CYC-116] | > 30 µM (inactive)
3 | – | > 30 µM (inactive) | > 30 µM (inactive) | – | – | > 30 µM (inactive) | > 30 µM (inactive) | > 30 µM (inactive) | CCc1cnn2c(NCc3ccc[n+]([O-])c3)cc(N3CCCC[C@H]3CCO)nc12 [DINACICLIB] | > 30 µM (inactive)
4 | – | – | > 30 µM (inactive) | – | – | – | > 30 µM (inactive) | > 30 µM (inactive) | CN1CCN(c2ccc3nc(-c4c(N)c5c(F)cccc5[nH]c4=O)[nH]c3c2)CC1 [DOVITINIB] | –
5 | – | – | > 30 µM (inactive) | – | – | > 30 µM (inactive) | > 30 µM (inactive) | > 30 µM (inactive) | Cc1cc(Nc2cc(N3CCN(C)CC3)nc(/C=C/c3ccccc3)n2)n[nH]1 [ENMD-2076] | > 30 µM (inactive)
6 | – | – | > 30 µM (inactive) | – | – | – | > 30 µM (inactive) | > 30 µM (inactive) | CCn1c(-c2nonc2N)nc2c(C#CC(C)(C)O)ncc(OC[C@H]3CCCNC3)c21 [GSK-690693] | –
7 | – | > 30 µM (inactive) | > 30 µM (inactive) | > 30 µM (inactive) | > 30 µM (inactive) | > 30 µM (inactive) | > 30 µM (inactive) | > 30 µM (inactive) | COc1cc2nccc(Oc3ccc(NC(=O)NC4CC4)c(Cl)c3)c2cc1C(N)=O [LENVATINIB] | > 30 µM (inactive)
8 | > 30 µM (inactive) | > 30 µM (inactive) | > 30 µM (inactive) | > 30 µM (inactive) | > 30 µM (inactive) | > 30 µM (inactive) | > 30 µM (inactive) | – | C1=C/COCc2cc(ccc2OCCN2CCCC2)Nc2nccc(n2)-c2cccc(c2)COC/1 [PACRITINIB] | > 30 µM (inactive)
9 | – | > 30 µM (inactive) | > 30 µM (inactive) | – | – | > 30 µM (inactive) | > 30 µM (inactive) | > 30 µM (inactive) | OCCn1cc(-c2cnc3nnn(Cc4ccc5ncccc5c4)c3n2)cn1 [PF-04217903] | > 30 µM (inactive)
10 | > 30 µM (inactive) | > 30 µM (inactive) | > 30 µM (inactive) | – | > 30 µM (inactive) | > 30 µM (inactive) | > 30 µM (inactive) | > 30 µM (inactive) | CNC(=O)c1ccc(C)c(-n2c(C)cc(OCc3ccc(F)cc3F)c(Br)c2=O)c1 [PH-797804] | > 30 µM (inactive)
11 | > 30 µM (inactive) | > 30 µM (inactive) | > 30 µM (inactive) | > 30 µM (inactive) | > 30 µM (inactive) | > 30 µM (inactive) | > 30 µM (inactive) | – | C[C@@H](c1ccc2nccn2c1)n1nnc2ncc(-c3cnn(C)c3)nc21 [SAVOLITINIB] | > 30 µM (inactive)
12 | > 30 µM (inactive) | – | > 30 µM (inactive) | > 30 µM (inactive) | > 30 µM (inactive) | > 30 µM (inactive) | > 30 µM (inactive) | > 30 µM (inactive) | CN1CCC(CNc2ccc3ncc(-c4cccc(OC(F)(F)F)c4)n3n2)CC1 [SGI-1776] | > 30 µM (inactive)
13 | > 30 µM (inactive) | – | > 30 µM (inactive) | – | – | – | > 30 µM (inactive) | – | Nc1nc(N)c2nc(-c3cccc(O)c3)c(-c3cccc(O)c3)nc2n1 [TG100-115] | –
14 | > 30 µM (inactive) | > 30 µM (inactive) | > 30 µM (inactive) | > 30 µM (inactive) | > 30 µM (inactive) | > 30 µM (inactive) | > 30 µM (inactive) | – | O=c1sn(-c2cccc3ccccc23)c(=O)n1Cc1ccccc1 [TIDEGLUSIB] | > 30 µM (inactive)
15 | – | > 30 µM (inactive) | > 30 µM (inactive) | > 30 µM (inactive) | > 30 µM (inactive) | > 30 µM (inactive) | > 30 µM (inactive) | > 30 µM (inactive) | COc1cc2nccc(Oc3ccc(NC(=O)Nc4cc(C)on4)c(Cl)c3)c2cc1OC [TIVOZANIB] | –
16 | > 30 µM (inactive) | – | > 30 µM (inactive) | > 30 µM (inactive) | > 30 µM (inactive) | > 30 µM (inactive) | > 30 µM (inactive) | – | CN1N=C(N)c2cn([C@@H]3O[C@H](COP(=O)(O)O)[C@@H](O)[C@H]3O)c3ncnc1c23 [TRICIRIBINE PHOSPHATE] | > 30 µM (inactive)

Row | Structure (SMILES) | Kd [1] | Kd [2] | Kd [3] | Kd [5] | Kd [6] | Kd [7] | Kd [8] | Kd [9] | Kd [4]
17 | Cc1cc(-c2cc(O)ccc2Cl)cc2nnc(Nc3ccc(OCCN4CCCC4)cc3)nc12 | 0.002 µM (active) | > 30 µM (inactive) | > 30 µM (inactive) | > 30 µM (inactive) | > 30 µM (inactive) | > 30 µM (inactive) | > 30 µM (inactive) | > 30 µM (inactive) | > 30 µM (inactive)
18 | Cc1cn(-c2cc(NC(=O)c3ccc(C)c(Nc4nccc(-c5cccnc5)n4)c3)cc(C(F)(F)F)c2)cn1 [NILOTINIB] | – | – | > 30 µM (inactive) | – | – | – | > 30 µM (inactive) | 0.02 µM | –
19 | C=CC(=O)N1CCC(Oc2cc3c(Nc4ccc(Cl)c(Cl)c4F)ncnc3cc2OC)CC1 [POZIOTINIB] | > 30 µM (inactive) | > 30 µM (inactive) | > 30 µM (inactive) | > 30 µM (inactive) | > 30 µM (inactive) | > 30 µM (inactive) | > 30 µM (inactive) | – | > 30 µM (inactive)
20 | O=C(Nc1cccc(Cl)c1)Nc1ncc(CCNc2ncnc3ccsc23)s1 [SNS-314] | – | – | > 30 µM (inactive) | – | – | > 30 µM (inactive) | > 30 µM (inactive) | > 30 µM (inactive) | > 30 µM (inactive)
